Data reported in PubChem BioAssay (NCI).
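Cells were grown in 96-well plates and exposed to each compound for 48 hours at five concentrations; endpoints were interpolated linearly between bracketing concentrations, or set to the highest concentration if not reached. Definition used: TGI = concentration required for complete inhibition of growth.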

Legend:
Assay in all cases: DTP human tumour cell line panel, 48 h
[1] = test system: HCT-15 colon
[2] = test system: LOX IMVI melanoma
[3] = test system: M14 melanoma
[4] = test system: OVCAR-3 ovarian
[5] = test system: OVCAR-8 ovarian
[6] = test system: SF-268 CNS
[7] = test system: T-47D breast
[8] = test system: UO-31 renal
[9] = test system: EKVX NSCLC
[10] = test system: SF-539 CNS

Row | SMILES | TGI [1] [µM] | TGI [2] [µM] | TGI [3] [µM] | TGI [4] [µM] | TGI [5] [µM] | TGI [6] [µM] | TGI [7] [µM] | TGI [8] [µM] | TGI [9] [µM] | TGI [10] [µM]
1 | Cc1cc2c(c(=O)n1C)SCC2 | > 100 | > 100 | > 100 | > 100 | > 100 | > 100 | > 100 | > 100 | – | –
2 | CC1(C2CCC3(C)OC3C2)CO1 (configuration not stated) | – | > 100 | > 100 | > 100 | > 100 | > 100 | – | > 100 | > 100 | > 100
3 | CCN(CC)c1nc(N(C)C)c2ccccc2n1 | > 100 | > 100 | 72.1 | – | > 100 | > 100 | > 100 | 85.1 | 51.1 | 96.1
4 | Cc1ccc(S(=O)(=O)n2cc(C#N)c(C#N)c2)cc1 | 59 | 52.1 | 47.7 | 46.2 | > 100 | 69.2 | 72.4 | 72.2 | > 100 | 39.9
5 | CN1C(=O)C(O)CC1c1cccc(C(F)(F)F)c1 (configuration not stated) | > 100 | > 100 | > 100 | > 100 | > 100 | > 100 | > 100 | > 100 | > 100 | > 100
6 | CC(C)(C)C1CC[C@H](O)[C@H]([C@H](O)CC2CC(=O)N(c3ccccc3)C(=O)C2)C1 (some centres not stated) | > 100 | > 100 | > 100 | > 100 | > 100 | > 100 | – | > 100 | > 100 | > 100
7 | COC(=O)c1c(-c2ccc(Cl)cc2)cc2c3ccccc3n(C)c2c1C(=O)OC | > 100 | > 100 | > 100 | > 100 | > 100 | > 100 | – | > 100 | > 100 | > 100
8 | CCCNc1ncnc2[nH]ncc12 | > 100 | > 100 | > 100 | > 100 | > 100 | > 100 | > 100 | > 100 | > 100 | > 100
9 | C#CCC1(C(=O)OCC)C(=O)c2ccccc2N(C)C1=O (configuration not stated) | > 100 | > 100 | > 100 | > 100 | > 100 | > 100 | – | > 100 | > 100 | > 100
10 | CN(C)C(=S)Oc1ccc2ccc(=O)oc2c1 | > 100 | > 100 | > 100 | > 100 | > 100 | > 100 | > 100 | > 100 | > 100 | > 100
11 | Cc1ccccc1OC(C)C(=O)NN1C(=O)CC(=O)N(c2ccccc2)C1=S (configuration not stated) | > 100 | > 100 | > 100 | > 100 | > 100 | > 100 | > 100 | > 100 | > 100 | > 100
12 | CCN(CC)c1ccc2cc(-c3nc4ccccc4c(=O)[nH]3)c(=N)oc2c1 | > 100 | > 100 | > 100 | – | > 100 | > 100 | > 100 | > 100 | > 100 | > 100
13 | NCCC1CN(C(=O)OCc2ccccc2)c2ccccc21 (configuration not stated) | 14.5 | 17.1 | 27.4 | 45.6 | 20.3 | 39.4 | 28 | 27.3 | 84.4 | 14.4
14 | C(/Cc1ccc2c(c1)OCO2)=N\NC1=NCCCN1 | > 100 | > 100 | > 100 | > 100 | > 100 | > 100 | > 100 | > 100 | > 100 | > 100
15 | COC(=O)[C@@H]1CN(C(=O)c2ccccc2)C(=O)N1C(=O)OCc1ccccc1 | > 100 | > 100 | > 100 | > 100 | > 100 | > 100 | > 100 | > 100 | > 100 | > 100
16 | O=c1cc(NCc2ccncc2)[nH]c(=O)[nH]1 | > 100 | > 100 | > 100 | > 100 | > 100 | > 100 | > 100 | > 100 | > 100 | > 100
17 | CCOC(=O)c1cn(C)c(=S)n2c1nc1ccccc12 | > 100 | > 100 | > 100 | > 100 | > 100 | – | > 100 | > 100 | > 100 | > 100
18 | Cc1nc2ccc(Cl)cc2c2c1CCN2c1ccccc1 | 95.3 | 22.3 | – | 44.1 | 29.1 | 83.9 | 36.3 | 23.8 | 68.2 | 28.8
19 | NCCOCC(N)C(=O)O (configuration not stated) | > 100 | > 100 | > 100 | > 100 | > 100 | > 100 | > 100 | > 100 | > 100 | > 100
20 | CSc1nc(NC(C)C)c2c(n1)Sc1nc3ccccc3n1C2O (configuration not stated) | > 100 | > 100 | > 100 | 5.88 | > 100 | > 100 | 22.4 | 27.8 | > 100 | –
21 | CS(=O)(=O)NC12CCC(c3ccccc31)c1ccccc12 | > 100 | > 100 | > 100 | > 100 | – | > 100 | > 100 | > 100 | > 100 | > 100
22 | CCOC(=O)C1CCCCN1CCc1c[nH]c2ccccc12 (configuration not stated) | > 100 | > 100 | > 100 | > 100 | > 100 | > 100 | 97.1 | > 100 | > 100 | > 100
